Source: patent US9144239B2, “Macrocyclic picolinamides as fungicides” (DOW AGROSCIENCES LLC, priority 2012, dated 2015)

Assays:
Type in all cases: in vivo
[1] = system: Blumeria graminis f.sp. hordei; synonym: Erysiphe graminis f.sp. hordei; assay: Fungicidal activity: barley powdery mildew (ERYSGH); details: 24 h, 1 Day Protectant, read-out: Disease Control ERYSGH 1DP
Description: Technical grades of materials were dissolved in acetone, which were then mixed with nine volumes of water containing 110 ppm Triton X-100. The fungicide solutions were applied onto wheat seedlings using an automated booth sprayer to run-off. All sprayed plants were allowed to air dry prior to further handling. Wheat plants (variety Yuma) were grown from seed in a greenhouse in 50% mineral soil/50% soil-less Metro mix until the first leaf was fully emerged, with 7-10 seedlings per pot. These plants were inoculated with an aqueous spore suspension of Septoria tritici either prior to or after fungicide treatments. After inoculation the plants were kept in 100% relative humidity (one day in a dark dew chamber followed by two to three days in a lighted dew chamber at 20° C.) to permit spores to germinate and infect the leaf. The plants were then transferred to a greenhouse set at 20° C. for disease to develop. When disease symptoms were fully expressed on the 1st leaves of untreated plants, infection levels were assessed on a scale of 0 to 100 percent disease severity. Percent disease control was calculated using the ratio of disease severity on treated plants relative to untreated plants. Evaluation of Fungicidal Activity: Barley Powdery Mildew (Blumeria graminis f.sp. hordei; Synonym: Erysiphe graminis f.sp. hordei; Bayer Code […]) Barley seedlings (variety Harrington) were propagated in soil-less Metro mix, with each pot having 8 to 12 plants, and used in the test when first leaf was fully emerged. Test plants were inoculated by dusting with infected stock plants 24 hr after fungicide treatments. After inoculation the plants were kept in a greenhouse set at 20° C. for disease to develop. Fungicide formulation, application and disease assessment on the sprayed leaves followed the procedures as described in the Example A.

Leptosphaeria nodorum = assay: Fungicidal activity: wheat glume blotch (LEPTNO); details: Parastagonospora nodorum, 24 h, 1 Day Protectant, read-out: Disease Control LEPTNO 1 DP
Description: Technical grades of materials were dissolved in acetone, which were then mixed with nine volumes of water containing 110 ppm Triton X-100. The fungicide solutions were applied onto wheat seedlings using an automated booth sprayer to run-off. All sprayed plants were allowed to air dry prior to further handling. Wheat plants (variety Yuma) were grown from seed in a greenhouse in 50% mineral soil/50% soil-less Metro mix until the first leaf was fully emerged, with 7-10 seedlings per pot. These plants were inoculated with an aqueous spore suspension of Septoria tritici either prior to or after fungicide treatments. After inoculation the plants were kept in 100% relative humidity (one day in a dark dew chamber followed by two to three days in a lighted dew chamber at 20° C.) to permit spores to germinate and infect the leaf. The plants were then transferred to a greenhouse set at 20° C. for disease to develop. When disease symptoms were fully expressed on the 1st leaves of untreated plants, infection levels were assessed on a scale of 0 to 100 percent disease severity. Percent disease control was calculated using the ratio of disease severity on treated plants relative to untreated plants. Evaluation of Fungicidal Activity: Wheat Glume Blotch (Leptosphaeria nodorum; Bayer Code […]) Wheat plants (variety Yuma) were grown from seed in a greenhouse in 50% mineral soil/50% soil-less Metro mix until the first leaf was fully emerged, with 7-10 seedlings per pot. These plants were inoculated with an aqueous spore suspension of Leptosphaeria nodorum 24 hr after fungicide treatments. After inoculation the plants were kept in 100% relative humidity (one day in a dark dew chamber followed by two days in a lighted dew chamber at 20° C.) to permit spores to germinate and infect the leaf. The plants were then transferred to a greenhouse set at 20° C. for disease to develop. Fungicide formulation, application and disease assessment followed the procedures as described in the Example A.

Erysiphe cichoracearum = assay: Fungicidal activity: powdery mildew of cucumber (ERYSCI); details: Golovinomyces cichoracearum, 24 h, 1 Day Protectant, read-out: Disease Control ERYSCI 1DP
Description: Technical grades of materials were dissolved in acetone, which were then mixed with nine volumes of water containing 110 ppm Triton X-100. The fungicide solutions were applied onto wheat seedlings using an automated booth sprayer to run-off. All sprayed plants were allowed to air dry prior to further handling. Wheat plants (variety Yuma) were grown from seed in a greenhouse in 50% mineral soil/50% soil-less Metro mix until the first leaf was fully emerged, with 7-10 seedlings per pot. These plants were inoculated with an aqueous spore suspension of Septoria tritici either prior to or after fungicide treatments. After inoculation the plants were kept in 100% relative humidity (one day in a dark dew chamber followed by two to three days in a lighted dew chamber at 20° C.) to permit spores to germinate and infect the leaf. The plants were then transferred to a greenhouse set at 20° C. for disease to develop. When disease symptoms were fully expressed on the 1st leaves of untreated plants, infection levels were assessed on a scale of 0 to 100 percent disease severity. Percent disease control was calculated using the ratio of disease severity on treated plants relative to untreated plants. Evaluation of Fungicidal Activity: Powdery Mildew of Cucumber (Erysiphe cichoracearum; Bayer Code […]) Cucumber seedlings (variety Bush Pickle) were grown in soil-less Metro mix, with one plant per pot, and used in the test when 12 to 14 days old. Plants were inoculated with a spore suspension 24 hr following fungicide treatments. After inoculation the plants remained in the greenhouse set at 20° C. until disease was fully expressed. Fungicide formulation, application and disease assessment on the sprayed leaves followed the procedures as described in the Example A.

Venturia inaequalis = assay: Fungicidal activity: apple scab (VENTIN); details: 24 h, 1 Day Protectant, read-out: Disease Control VENTIN 1 DP
Description: Technical grades of materials were dissolved in acetone, which were then mixed with nine volumes of water containing 110 ppm Triton X-100. The fungicide solutions were applied onto wheat seedlings using an automated booth sprayer to run-off. All sprayed plants were allowed to air dry prior to further handling. Wheat plants (variety Yuma) were grown from seed in a greenhouse in 50% mineral soil/50% soil-less Metro mix until the first leaf was fully emerged, with 7-10 seedlings per pot. These plants were inoculated with an aqueous spore suspension of Septoria tritici either prior to or after fungicide treatments. After inoculation the plants were kept in 100% relative humidity (one day in a dark dew chamber followed by two to three days in a lighted dew chamber at 20° C.) to permit spores to germinate and infect the leaf. The plants were then transferred to a greenhouse set at 20° C. for disease to develop. When disease symptoms were fully expressed on the 1st leaves of untreated plants, infection levels were assessed on a scale of 0 to 100 percent disease severity. Percent disease control was calculated using the ratio of disease severity on treated plants relative to untreated plants. Evaluation of Fungicidal Activity: Apple Scab (Venturia inaequalis; Bayer Code […]) Apple seedlings (variety McIntosh) were grown in soil-less Metro mix, with one plant per pot. Seedlings with two expanding young leaves at the top (older leaves at bottom of the plants were trimmed) were used in the test. Plants were inoculated with a spore suspension of Venturia inaequalis 24 hr after fungicide treatment and kept in a 22° C. dew chamber with 100% RH for 48 hr, and then moved to a greenhouse set at 20° C. for disease to develop. Fungicide formulation, application and disease assessment on the sprayed leaves followed the procedures as described in the Example A.

Row | Compound | pest or weed control at 100 ppm [1] [%] | pest or weed control at 100 ppm (Leptosphaeria nodorum) [%] | pest or weed control at 100 ppm (Erysiphe cichoracearum) [%] | pest or weed control at 100 ppm (Venturia inaequalis) [%]
1 | CCCCO[C@H]1COC[C@H](NC(=O)c2nccc(OC)c2OCOC(C)=O)C(=O)O[C@@H](C)[C@@H]1OCCOC [Compound 54] | 0 to 80 | 80 to 100 | – | –
2 | COc1ccnc(C(=O)N[C@H]2COC[C@H](Oc3ccc(F)cc3)[C@@H](Oc3ccc(F)cc3)[C@H](C)OC2=O)c1OC(C)=O [Compound 229, 2-(((3S,7S,8S,9S)-7,8-bis(4-fluorophenoxy)-9-methyl-2-oxo-1,5-dioxonan-3-yl)carbamoyl)-4-methoxypyridin-3-yl acetate] | 0 to 80 | 80 to 100 | 0 to 80 | –
3 | CCC(C)(C)O[C@H]1COC[C@H](NC(=O)c2nccc(OC)c2OCOC(C)=O)C(=O)O[C@@H](C)[C@@H]1OCC(C)C [Compound 78] | 0 to 80 | 80 to 100 | 80 to 100 | 80 to 100
4 | COc1ccnc(C(=O)N[C@H]2COC[C@H](OC)[C@@H](OC)[C@H](C)OC2=O)c1OCOC(C)=O [Compound 65] | – | 0 to 80 | – | –
5 | COc1ccnc(C(=O)N[C@H]2COC[C@H](Oc3ccccc3)[C@@H](Oc3ccccc3)[C@H](C)OC2=O)c1OCOC(C)=O [Compound 84] | 0 to 80 | 80 to 100 | 0 to 80 | 0 to 80
6 | COc1ccnc(C(=O)N[C@H]2COC[C@H](OCC(C)C)[C@@H](OCC(C)C)[C@H](C)OC2=O)c1OCOC(C)=O [Compound 3, (2-((3S,7S,8S,9S)-7,8-diisobutoxy-9-methyl-2-oxo-1,5-dioxonan-3-ylcarbamoyl)-4-methoxypyridin-3-yloxy)methyl] | 80 to 100 | 80 to 100 | 0 to 80 | 0 to 80
7 | COc1ccnc(C(=O)N[C@H]2COC[C@H](OCC(C)C)[C@@H](OC3CCCCC3)[C@H](C)OC2=O)c1OCOC(C)=O [Compound 77] | 0 to 80 | 80 to 100 | 0 to 80 | 0 to 80
8 | COc1ccnc(C(=O)N[C@H]2COC[C@H](Oc3ccccc3)[C@@H](OCC(C)C)[C@H](C)OC2=O)c1OCOC(C)=O [Compound 86] | 0 to 80 | 80 to 100 | 0 to 80 | 0 to 80
9 | COc1ccnc(C(=O)NC2COC[C@H](OCc3ccccc3)[C@@H](OCc3ccccc3)[C@H](C)OC2=O)c1OCOC(C)=O (stereo partly shown) [Compound 12] | 0 to 80 | 80 to 100 | – | 0 to 80
10 | COc1ccnc(C(=O)N[C@H]2COC[C@H](OCCCC(F)(F)F)[C@@H](OCCCC(F)(F)F)[C@H](C)OC2=O)c1OCOC(C)=O [Compound 68] | 0 to 80 | 80 to 100 | 0 to 80 | 0 to 80
11 | COc1ccnc(C(=O)N[C@H]2COC[C@H](OC(=O)C(C)C)[C@@H](OC(=O)C(C)C)[C@H](C)OC2=O)c1OCOC(C)=O [Compound 57] | 0 to 80 | 0 to 80 | 0 to 80 | –
12 | CCCCO[C@H]1COC[C@H](NC(=O)c2nccc(OC)c2OCOC(C)=O)C(=O)O[C@@H](C)[C@@H]1OCC(F)F [Compound 55] | – | 80 to 100 | – | –
13 | COc1ccnc(C(=O)N[C@H]2COC[C@H](OCCCc3ccccc3)[C@@H](OCCCc3ccccc3)[C@H](C)OC2=O)c1OCOC(C)=O [Compound 60] | – | 80 to 100 | – | 0 to 80
14 | COc1ccnc(C(=O)N[C@H]2COC[C@H](OCC(C)C)[C@@H](OCC(C)C)[C@H](C)OC2=O)c1OCOC(=O)C(C)C [Compound 2] | 80 to 100 | – | 80 to 100 | –
15 | COc1ccnc(C(=O)N[C@H]2COC[C@H](Oc3ccc(F)cc3)[C@@H](Oc3ccc(F)cc3)[C@H](C)OC2=O)c1OCOC(C)=O [Compound 231] | 0 to 80 | 80 to 100 | 0 to 80 | 0 to 80
16 | COc1ccnc(C(=O)N[C@H]2COC[C@H](OCC(C)C)[C@@H](Oc3ccccc3)[C@H](C)OC2=O)c1OCOC(C)=O [Compound 85] | 0 to 80 | 80 to 100 | 0 to 80 | 0 to 80
